From patent US11352604B2, “Method of making cardiomyocytes from human pluripotent cells” (Wisconsin Alumni Research Foundation, priority 2016, dated 2022)

Key:
[1] = system: NFκB signaling; assay: Western blot of NFκB and phosphorylated IκB in day 5 cardiac progenitors; assay type: cell-based, human; conditions: pI:C days 3-5
Experimental: Frozen cell pellets from cardiac progenitors in the 19-9-11 iPS cell line were thawed and protein isolated in EBC lysis buffer (Boston BioProducts) supplemented with complete protease inhibitor tablets (Roche) rocking on ice for 1 hour to cause cell lysis. After the observation of lysis material and cell debris, protein/debris mixtures were centrifuged at >18,000×g for 15 minutes at 4° C. The protein-containing supernatant was quantified in a plate reader using the Biorad DC protein assay. 40 to 80 μg of protein was loaded in 6× βmercaptoethanol-containing Laemmli sample buffer (Biorad), boiled for 10 minutes at 95° C., then run on a 4-20% Criterion™ TGX™ gel (Biorad) for 30 minutes at 200 V. Proteins were then transferred at 10 V overnight at 4° C. to Immobilon-FL™ PVDF in a Criterion™ plate transfer cassette in Tris-Glycine transfer buffer (Biorad) with 20% methanol. Membranes were blocked for 1 hour at RT in Licor PBS blocking buffer, and then incubated with primary antibodies overnight 4° C. Antibodies were used at a dilution of 1:1000 (goat anti-Jag1, R&D systems) or 1:3000 (GAPDH, sigma) in Licor PBS blocking buffer. […] Licor secondary donkey anti-rabbit or anti-mouse antibodies were used at 1:15,000 for 1 hour at RT in Licor PBS blocking buffer, and after washing membranes were analyzed in a Licor Odyssey detection system. […]

[2] = system: cTnT isoforms; assay: Top-down mass spectrometry of cTnT isoforms (adult to fetal AUC ratio); assay type: cell-based, human
Experimental: Freshly isolated CMs from the H9-cTnT-GFP (FIG. 1) or 19-9-11 (FIG. 2) hPSC cell lines were washed with Ca^2+-free DPBS and centrifuged at 1,100 g for 5 minutes (min) and the wash solvent was removed. The cells were first homogenized in 50 μl HEPES solution (25 mM HEPES, pH 7.4, 2.5 mM EDTA, 100 mM NaF, 1 mM DTT, 10 mM L-methionine, 1 mM PMSF, 1 mM Na3VO4, protease inhibitor (Abcam) and phosphatase inhibitors). The homogenates were centrifuged at 17,000 g for 20 min and the HEPES extract containing predominately cytosolic proteins was collected. The remaining pellets were homogenized in 40 μl trifluoroacetic acid (TFA) solution (1% TFA, 5 mM tris(2-carboxyethyl)phosphine, 5 mM L-methionine) and centrifuged at 17,000 g for 20 min. The TFA extract containing predominantly the sarcomeric proteins was collected. Bradford protein assays were performed to determine the protein concentration. The sarcomeric protein-enriched extracts were diluted to 100 ng/μl for Liquid chromatography (LC)-MS analysis.
500 ng of each sarcomeric protein-enriched extract was injected to a home-packed reverse phase chromatography (RPC) column (PLRP-S, 10 μm particle size, 1000 A pore size, 500 μm inner diameter, 25 cm long), and the proteins were separated with a gradient of 5-95% mobile phase B (0.1% formic acid in 50:50 acetonitrile:ethanol) (mobile phase A: 0.1% formic acid in H2O) at a constant flowrate of 12 μl/min. The eluting proteins were analyzed by a high-resolution quadrupole-time of flight (q-TOF) mass spectrometer (Impact II, Bruker Daltonics) via electrospray ionization. The mass spectra were collected at a scan rate of 0.5 Hz for all samples being analyzed. Analyses of top-down mass spectra were performed using the vender-specific software DataAnalysis 3.2 (Bruker Daltonics).
Quantification of the sarcomeric protein isoforms was performed as previously described. […] The area under curve (AUC) of the EIC of a specific protein isoform represents the abundance of the selected protein isoform. […] Relative quantification of protein isoform expression was measured by the ratio of the AUCs.

polyinosinic-polycytidylic acid [pI:C]
phosphorylated IκB (NFκB pathway activation) [1]: showed expression of phosphorylated (inactivated) inhibitor IκB | ratio of adult to fetal cTnT isoforms ([2]; day 30 cardiomyocytes): increased the ratio of adult to fetal isoforms | adult to fetal cTnT isoform ratio and relative difference treated vs untreated ([2]; prolonged culture to day 122): increased dramatically
